Results from patent US8431593B2, “Heteroaryl amide derivatives” (H. Lundbeck A/S, priority 2006, dated 2013).

Each compound was assayed against T1, P2X7 receptor (Homo sapiens, UniProt Q99572) (assay: P2X7 calcium mobilization assay, high throughput, antagonist activity (Example 4A)). Conditions: P2X7 calcium mobilization, Example 4A; 50% decrease in the fluorescence response of cells exposed to 80 μM of (2′(3′)-O-(4-benzoyl-benzoyl)adenosine 5′-triphosephate); read-out: IC50.
T1 construct: host or cells: SH-SY5Y
T1 sequence (Q99572 1-595): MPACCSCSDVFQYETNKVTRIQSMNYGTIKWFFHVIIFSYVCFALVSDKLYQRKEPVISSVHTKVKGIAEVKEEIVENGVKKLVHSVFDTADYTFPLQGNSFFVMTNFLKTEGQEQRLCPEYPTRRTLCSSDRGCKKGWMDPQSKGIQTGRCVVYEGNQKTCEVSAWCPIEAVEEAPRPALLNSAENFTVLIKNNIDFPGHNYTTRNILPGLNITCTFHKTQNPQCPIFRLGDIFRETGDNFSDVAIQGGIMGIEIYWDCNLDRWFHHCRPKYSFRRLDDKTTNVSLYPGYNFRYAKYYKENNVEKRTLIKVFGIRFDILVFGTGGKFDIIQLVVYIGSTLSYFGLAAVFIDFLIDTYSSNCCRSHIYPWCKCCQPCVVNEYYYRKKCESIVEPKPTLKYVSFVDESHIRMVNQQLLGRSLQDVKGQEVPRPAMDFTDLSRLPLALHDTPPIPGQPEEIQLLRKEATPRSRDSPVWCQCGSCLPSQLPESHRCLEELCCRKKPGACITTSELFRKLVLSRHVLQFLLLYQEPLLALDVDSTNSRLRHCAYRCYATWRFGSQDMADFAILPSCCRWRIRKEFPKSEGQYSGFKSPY
Assay type: cell-based
In short: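 Cells plated at 100,000/well the day before were dye-loaded for 1 h, then incubated 1 h at room temperature with test compound before agonist-triggered calcium mobilization was read on FLIPR Tetra. Maximum RFU was corrected by subtracting the no-agonist control and related to the agonist-control response.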

IC50, < 2 µM:
O=C(NCC12CC3CC(CC(C3)C1)C2)c1cccc2nc(CCN3CCCC3)cn12 [Compound 1040, N-(adamantan-1-ylmethyl)-2-(2-pyrrolidin-1-ylethyl) imidazo [1,2-a]pyridine-5-carboxamide]
CC(C)CC(CNC(=O)c1cccc2nc(CCN3CCCC3)cn12)c1ccc(Cl)cc1 (stereo not drawn) [Compound 1041, N-[2-(4-chlorophenyl)-4-methylpentyl]-2-(2-pyrrolidin-1-ylethyl) imidazo[1,2-a]pyridine-5-carboxamide]
CC(C)CC(CNC(=O)c1cccc2nc(CCN3CCCC3)cn12)c1ccc(C(F)(F)F)cc1 (stereo not drawn) [Compound 1042, N-{4-methyl-2-[4-(Irifluoromethyl)phenyl]pentyl}-2-(2-pyrrolidin-1-ylethyl) imidazo[1,2-a]pyridine-5-carboxamide]
O=C(NCC1(c2ccc(C(F)(F)F)cc2)CCCCC1)c1cccc2nc(CN3CCCC3)cn12 [Compound 1044, 2-(pyrrolidin-1-ylmethyl)-N-({1-[4-(trifluoromethyl)phenyl]cyclohexyl}methyl) imidazo[1,2-a] pyridine-5-carboxamide]
O=C(NCC1(c2ccc(F)cc2)CCCCC1)c1cccc2nc(CN3CCCC3)cn12 [Compound 1045, N-{[1-(4-fluorophenyl)cyclohexyl]methyl}-2-(pyrrolidin-1-ylmethyl) imidazo[1,2-a]pyridine-5-carboxamide]
O=C(NCC1(c2ccc(Cl)c(F)c2)CCCCC1)c1cccc2nc(CN3CCCC3)cn12 [Compound 1046, N-{[1-(4-chloro-3-fluorophenyl)cyclohexyl]methyl}-2-(pyrrolidin-1-ylmethyl) imidazo[1,2-a]pyridine-5-carboxamide]
O=C(NCC1(c2ccc(Cl)cc2)CCCCC1)c1cccc2nc(CN3CCCC3)cn12 [Compound 1047, N-{[1-(4-chlorophenyl)cyclohexyl]methyl}-2-(pyrrolidin-1-ylmethyl) imidazo[1,2-a]pyridine-5-carboxamide]
Cc1ccc(C(CNC(=O)c2cccc3nc(CN4CCCC4)cn23)CC(C)C)cc1 (stereo not drawn) [Compound 1048, N-[4-methyl-2-(4-methylphenyl)pentyl]-2-(pyrrolidin-1-ylmethyl) imidazo [1,2-a] pyridine-5-carboxamide]
Cc1ccc(C2(CNC(=O)c3cccc4nc(CN5CCCC5)cn34)CCCCC2)cc1 [Compound 1049, N-{[1-(4-methylphenyl)cyclohexyl]methyl}-2-(pyrrolidin-1-ylmethyl) imidazo[1,2-a]pyridine-5-carboxamide]
CN1CCCC(NC(=O)Cc2cn3c(C(=O)NCC45CC6CC(CC(C6)C4)C5)cccc3n2)C1 (stereo not drawn) [Compound 1050, N-(adamantan-1-ylmethyl)-2-{2-[(1-methylpiperidin-3-yl)amino]-2-oxoethyl} imidazo[1,2-a]pyridine-5-carboxamide]
CC(C)CC(CNC(=O)c1cccc2nccn12)c1ccc(C(F)(F)F)nc1 (stereo not drawn) [Compound 1051, N-{4-methyl-2-[6-(trifluoromethyl)pyridin-3-yl]pentyl} imidazo[1,2-a]pyridine-5-carboxamide]
CC(C)CC(CNC(=O)c1cccc2ncc(Cl)n12)c1ccc(C(F)(F)F)nc1 (stereo not drawn) [Compound 1052, 3-chloro-N-{4-methyl-2-[6-(trifluoromethyl)pyridin-3-yl]pentyl} imidazo[1,2-a]pyridine-5-carboxamide]
CC(C)CC(CNC(=O)c1cccc2nc(CN3CCOCC3)cn12)c1ccc(C(F)(F)F)nc1 (stereo not drawn) [Compound 1053, N-{4-methyl-2-[6-(trifluoromethyl)pyridin-3-yl]pentyl}-2-(morpholin-4-ylmethyl) imidazo[1,2-a]pyridine-5-carboxamide]
O=C(NCC(c1ccc(Cl)cc1)N1CCCCC1)c1cccc2ncc(Cl)n12 (stereo not drawn) [Compound 1054, 3-chloro-N-[2-(4-chlorophenyl)-2-piperidin-1-ylethyl]imidazo[1,2-a]pyridine-5-carboxamide]
O=C(NCC(c1ccc(Cl)cc1)N1CCOCC1)c1cccc2ncc(Cl)n12 (stereo not drawn) [Compound 1055, 3-chloro-N-[2-(4-chlorophenyl)-2-morpholin-4-ylethyl]imidazo[1,2-a]pyridine-5-carboxamide]
O=C(NCC(c1ccc(Cl)cc1)N1CCCCC1)c1cccc2ncc(Br)n12 (stereo not drawn) [Compound 1056, 3-bromo-N-[2-(4-chlorophenyl)-2-piperidin-1-ylethyl]imidazo[1,2-a]pyridine-5-carboxamide]
O=C(NCC(c1ccc(Cl)cc1)N1CCOCC1)c1cccc2ncc(Br)n12 (stereo not drawn) [Compound 1057, 3-bromo-N-[2-(4-chlorophenyl)-2-morpholin-4-ylethyl] imidazo[1,2-a] pyridine-5-carboxamide]
O=C(NCC(c1ccc(C(F)(F)F)nc1)N1CCCCC1)c1cccc2ncc(Cl)n12 (stereo not drawn) [Compound 1058, 3-chloro-N-{2-piperidin-1-yl-2-[6-(trifluoromethyl)pyridin-3-yl]ethyl}imidazo[1,2-a]pyridine-5-carboxamide]
CCN(Cc1cn2c(C(=O)NCC34CC5CC(CC(C5)C3)C4)cccc2n1)C(=O)OC(C)OC(C)=O (stereo not drawn) [Compound 1059, 1-{[({5-[(adamantan-1-ylmethyl)carbamoyl]imidazo [1,2-a]pyridin-2-yl}methyl)(ethyl)carbamoyl]oxy} ethyl acetate]
CC(=O)OC(C)OC(=O)N[C@@H]1CCCN(C(=O)Cc2cn3c(C(=O)NCC45CC6CC(CC(C6)C4)C5)cccc3n2)C1 (stereo partly drawn) [Compound 1060, 1-({[(3R)-1-({5-[(adamantan-1-ylmethyl)carbamoyl]imidazo[1,2-a]pyridin-2-yl}acetyl)piperidin-3-yl]carbamoyl}oxy)ethyl acetate]
CCOC(=O)c1cn2cc(C(=O)NCC34CC5CC(CC(C5)C3)C4)ccc2n1 [Compound 1061, ethyl 6-[(adamantan-1-ylmethyl)carbamoyl] imidazo [1,2-a]pyridine-2-carboxylate]
O=C(NCC12CC3CC(CC(C3)C1)C2)c1ccc2nc(CCl)cn2c1 [Compound 1062, N-(adamantan-1-ylmethyl)-2-(chloromethyl) imidazo [1,2-a]pyridine-6-carboxamide]
CCOC(=O)Cc1cn2cc(C(=O)NCC34CC5CC(CC(C5)C3)C4)ccc2n1 [Compound 1063, ethyl {6-[(adamantan-1-ylmethyl)carbamoyl]imidazo[1,2-a]pyridin-2-yl} acetate]
O=C(NCC12CC3CC(CC(C3)C1)C2)c1ccn2cc(CCl)nc2c1 [Compound 1064, N-(adamantan-1-ylmethyl)-2-(chloromethyl)imidazo [1,2-a]pyridine-7-carboxamide]
